Assay results: patent publication US11180462B2, “Microbiocidal oxadiazole derivatives” (SYNGENTA PARTICIPATIONS AG, priority 2015, dated 2021)

Each compound was assayed on Glomerella lagenarium (Colletotrichum lagenarium) (assay: Fungicidal activity against Glomerella lagenarium (Colletotrichum lagenarium) liquid culture / cucumber / preventative (anthracnose)). Conditions: Colletotrichum orbiculare; 20 ppm in the applied formulation; liquid culture (PDB), growth inhibition measured photometrically after 3 to 4 days; compared to untreated control; read-out: disease control.
Type: cell-based
Procedure: Mycelia fragments or conidia suspensions of a fungus prepared either freshly from liquid cultures of the fungus or from cryogenic storage, are directly mixed into nutrient broth. DMSO solutions of the test compound (max. 10 mg/ml) are diluted with 0.025% Tween20 by a factor of 50 and 10 μl of this solution is pipetted into a microtiter plate (96-well format). The nutrient broth containing the fungal spores/mycelia fragments is then added to give an end concentration of the tested compound. The test plates are incubated in the dark at 24° C. and 96% relative humidity. The inhibition of fungal growth is determined photometrically after 2 to 7 days, depending on the pathosystem, and percent antifungal activity relative to the untreated check is calculated.
Fungicidal activity against Glomerella lagenarium (Colletotrichum lagenarium) liquid culture/cucumber/Preventative (Anthracnose)
Conidia of the fungus from cryogenic storage are directly mixed into nutrient broth (PDB—potato dextrose broth). After placing a (DMSO) solution of test compound into a microtiter plate (96-well format), the nutrient broth containing the fungal spores is added.
The following compounds at 20 ppm in the applied formulation give at least 80% disease control in this test when compared to untreated control under the same conditions, which show extensive disease development.
With `CCCON(Cc1ccc(-c2noc(C(F)(F)F)n2)cc1)C(=O)C1(C)CC1` [Compound 1.302, 1-methyl-N-propoxy-N-[[4-[5-(trifluoromethyl)-1,2,4-oxadiazol-3-yl]phenyl]methyl]-cyclopropane-carboxamide] the inhibition of growth at 20 ppm was no less than 80%.
Compound `CCCON(Cc1ccc(-c2noc(C(F)(F)F)n2)cc1)C(=O)CC` [Compound 1.303, N-propoxy-N-[[4-[5-(trifluoromethyl)-1,2,4-oxadiazol-3-yl]phenyl]methyl]-propanamide] has an inhibition of growth at 20 ppm of no less than 80%.
`C=C(C)C(=O)N(Cc1ccc(-c2noc(C(F)(F)F)n2)cc1)OCCC` [Compound 1.304, 2-methyl-N-propoxy-N-[[4-[5-(trifluoromethyl)-1,2,4-oxadiazol-3-yl]phenyl]methyl]-prop-2-enamide] showed an inhibition of growth at 20 ppm of no less than 80%.
For `CCCON(Cc1ccc(-c2noc(C(F)(F)F)n2)cc1)C(=O)C1(F)CC1` [Compound 1.307, 1-fluoro-N-propoxy-N-[[4-[5-(trifluoromethyl)-1,2,4-oxadiazol-3-yl]phenyl]methyl]-cyclopropane-carboxamide], the inhibition of growth at 20 ppm was no less than 80%.
`CCCON(Cc1ccc(-c2noc(C(F)(F)F)n2)cc1)C(=O)C=CC(C)=O` [Compound 1.310, 4-oxo-N-propoxy-N-[[4-[5-(trifluoromethyl)-1,2,4-oxadiazol-3-yl]phenyl]methyl]-pent-2-enamide] showed an inhibition of growth at 20 ppm of no less than 80%.
Work on `CCCON(Cc1ccc(-c2noc(C(F)(F)F)n2)cc1)C(=O)C(CC)COC` (stereo not shown) [Compound 1.311, 2-(methoxymethyl)-N-propoxy-N-[[4-[5-(trifluoromethyl)-1,2,4-oxadiazol-3-yl]phenyl]methyl]-butanamide] yielded an inhibition of growth at 20 ppm of no less than 80%.
For `CCCON(Cc1ccc(-c2noc(C(F)(F)F)n2)cc1)C(=O)CC(F)(F)F` [Compound 1.318, 3,3,3-trifluoro-N-propoxy-N-[[4-[5-(trifluoromethyl)-1,2,4-oxadiazol-3-yl]phenyl]methyl]-propanamide], the inhibition of growth at 20 ppm was no less than 80%.
Work on `CCCON(Cc1ccc(-c2noc(C(F)(F)F)n2)cc1)C(=O)C1CC1` [Compound 1.319, N-propoxy-N-[[4-[5-(trifluoromethyl)-1,2,4-oxadiazol-3-yl]phenyl]methyl]-cyclopropane-carboxamide] yielded an inhibition of growth at 20 ppm of no less than 80%.
`CCCON(Cc1ccc(-c2noc(C(F)(F)F)n2)cc1)C(=O)CCCOC` [Compound 1.321, 4-methoxy-N-propoxy-N-[[4-[5-(trifluoromethyl)-1,2,4-oxadiazol-3-yl]phenyl]methyl]-butanamide] showed an inhibition of growth at 20 ppm of no less than 80%.
For `CCCCC(=O)N(Cc1ccc(-c2noc(C(F)(F)F)n2)cc1)OCCC` [Compound 1.322, N-propoxy-N-[[4-[5-(trifluoromethyl)-1,2,4-oxadiazol-3-yl]phenyl]methyl]-pentanamide], the inhibition of growth at 20 ppm was no less than 80%.
`C=CC(=O)N(CCOC)Cc1ccc(-c2noc(C(F)(F)F)n2)cc1` [Compound 1.343, N-(2-methoxyethyl)-N-[[4-[5-(trifluoromethyl)-1,2,4-oxadiazol-3-yl]phenyl]methyl]prop-2-enamide] was tested, and the inhibition of growth at 20 ppm was no less than 80%.
For `CCC(C)N(Cc1ccc(-c2noc(C(F)(F)F)n2)cc1)C(=O)CC(C)C` (stereo not shown) [Compound 1.380, 3-methyl-N-sec-butyl-N-[[4-[5-(trifluoromethyl)-1,2,4-oxadiazol-3-yl]phenyl]methyl]-butanamide], the inhibition of growth at 20 ppm was no less than 80%.
Compound `CCC(C)N(Cc1ccc(-c2noc(C(F)(F)F)n2)cc1)C(=O)C1CCC1` (stereo not shown) [Compound 1.381, N-sec-butyl-N-[[4-[5-(trifluoromethyl)-1,2,4-oxadiazol-3-yl]phenyl]methyl]-cyclobutane-carboxamide] has an inhibition of growth at 20 ppm of no less than 80%.
`CCC(C)N(Cc1ccc(-c2noc(C(F)(F)F)n2)cc1)C(=O)C=CC(F)(F)F` (stereo not shown) [Compound 1.382, 4,4,4-trifluoro-N-sec-butyl-N-[[4-[5-(trifluoromethyl)-1,2,4-oxadiazol-3-yl]phenyl]methyl]but-2-enamide] gave an inhibition of growth at 20 ppm of no less than 80%.
Work on `CCC(C)N(Cc1ccc(-c2noc(C(F)(F)F)n2)cc1)C(=O)C1CC1C` (stereo not shown) [Compound 1.385, 2-methyl-N-sec-butyl-N-[[4-[5-(trifluoromethyl)-1,2,4-oxadiazol-3-yl]phenyl]methyl]-cyclopropane-carboxamide] yielded an inhibition of growth at 20 ppm of no less than 80%.
`CCC(C)N(Cc1ccc(-c2noc(C(F)(F)F)n2)cc1)C(=O)C1(F)CC1` (stereo not shown) [Compound 1.393, 1-fluoro-N-sec-butyl-N-[[4-[5-(trifluoromethyl)-1,2,4-oxadiazol-3-yl]phenyl]methyl]-cyclopropane-carboxamide] gave an inhibition of growth at 20 ppm of no less than 80%.
In the case of `CCC(C)C(=O)N(Cc1ccc(-c2noc(C(F)(F)F)n2)cc1)C(C)CC` (stereo not shown) [Compound 1.394, 2-methyl-N-sec-butyl-N-[[4-[5-(trifluoromethyl)-1,2,4-oxadiazol-3-yl]phenyl]methyl]-butanamide], the inhibition of growth at 20 ppm is reported as no less than 80%.
Work on `CCC(COC)C(=O)N(Cc1ccc(-c2noc(C(F)(F)F)n2)cc1)C(C)CC` (stereo not shown) [Compound 1.397, 2-(methoxymethyl)-N-sec-butyl-N-[[4-[5-(trifluoromethyl)-1,2,4-oxadiazol-3-yl]phenyl]methyl]-butanamide] yielded an inhibition of growth at 20 ppm of no less than 80%.
For `CCCCC(=O)N(Cc1ccc(-c2noc(C(F)(F)F)n2)cc1)C(C)CC` (stereo not shown) [Compound 1.409, N-sec-butyl-N-[[4-[5-(trifluoromethyl)-1,2,4-oxadiazol-3-yl]phenyl]methyl]-pentanamide], the inhibition of growth at 20 ppm was no less than 80%.
With `O=C(C1CCCC1)N(Cc1ccc(-c2noc(C(F)(F)F)n2)cc1)CC1CCCO1` (stereo not shown) [Compound 1.419, N-(tetrahydrofuran-2-ylmethyl)-N-[[4-[5-(trifluoromethyl)-1,2,4-oxadiazol-3-yl]phenyl]methyl]-cyclopentane-carboxamide] the inhibition of growth at 20 ppm was no less than 80%.
In the case of `O=C(C1=CCCC1)N(Cc1ccc(-c2noc(C(F)(F)F)n2)cc1)CC1CCCO1` (stereo not shown) [Compound 1.420, N-(tetrahydrofuran-2-ylmethyl)-N-[[4-[5-(trifluoromethyl)-1,2,4-oxadiazol-3-yl]phenyl]methyl]-cyclopentene-1-carboxamide], the inhibition of growth at 20 ppm is reported as no less than 80%.
`O=C(C=CC(F)(F)F)N(Cc1ccc(-c2noc(C(F)(F)F)n2)cc1)CC1CCCO1` (stereo not shown) [Compound 1.425, 4,4,4-trifluoro-N-(tetrahydrofuran-2-ylmethyl)-N-[[4-[5-(trifluoromethyl)-1,2,4-oxadiazol-3-yl]phenyl]methyl]-but-2-enamide] gave an inhibition of growth at 20 ppm of no less than 80%.
In the case of `CC1CC1C(=O)N(Cc1ccc(-c2noc(C(F)(F)F)n2)cc1)CC1CCCO1` (stereo not shown) [Compound 1.428, 2-methyl-N-(tetrahydrofuran-2-ylmethyl)-N-[[4-[5-(trifluoromethyl)-1,2,4-oxadiazol-3-yl]phenyl]methyl]-cyclopropane-carboxamide], the inhibition of growth at 20 ppm is reported as no less than 80%.
Compound `CC(C)(C)CC(=O)N(Cc1ccc(-c2noc(C(F)(F)F)n2)cc1)CC1CCCO1` (stereo not shown) [Compound 1.429, 3,3-dimethyl-N-(tetrahydrofuran-2-ylmethyl)-N-[[4-[5-(trifluoromethyl)-1,2,4-oxadiazol-3-yl]phenyl]methyl]-butanamide] has an inhibition of growth at 20 ppm of no less than 80%.
`CC(=O)C=CC(=O)N(Cc1ccc(-c2noc(C(F)(F)F)n2)cc1)CC1CCCO1` (stereo not shown) [Compound 1.439, 4-oxo-N-(tetrahydrofuran-2-ylmethyl)-N-[[4-[5-(trifluoromethyl)-1,2,4-oxadiazol-3-yl]phenyl]methyl]-pent-2-enamide] showed an inhibition of growth at 20 ppm of no less than 80%.
